PMC9410420, “Novel Labdane Diterpenes-Based Synthetic Derivatives: Identification of a Bifunctional Vasodilator That Inhibits CaV1.2 and Stimulates KCa1.1 Channels” (Marine Drugs, 2022)
Where two headings read alike, the source gives them in different places.

What was measured:
CaV1.2 channel = biological target: T1, CaV1.2 channel (Rattus norvegicus, UniProt P22002); assay: Whole-cell patch-clamp, Ba2+ current through CaV1.2 channels (IBa1.2) in rat tail artery myocytes; format: cell-based; conditions: pulses to 10 mV from Vh −50 mV
T1 construct: smooth muscle cells were freshly isolated; endogenous in cells; host or cells: freshly isolated rat tail main artery smooth muscle cells
T1 sequence (P22002 whole entry): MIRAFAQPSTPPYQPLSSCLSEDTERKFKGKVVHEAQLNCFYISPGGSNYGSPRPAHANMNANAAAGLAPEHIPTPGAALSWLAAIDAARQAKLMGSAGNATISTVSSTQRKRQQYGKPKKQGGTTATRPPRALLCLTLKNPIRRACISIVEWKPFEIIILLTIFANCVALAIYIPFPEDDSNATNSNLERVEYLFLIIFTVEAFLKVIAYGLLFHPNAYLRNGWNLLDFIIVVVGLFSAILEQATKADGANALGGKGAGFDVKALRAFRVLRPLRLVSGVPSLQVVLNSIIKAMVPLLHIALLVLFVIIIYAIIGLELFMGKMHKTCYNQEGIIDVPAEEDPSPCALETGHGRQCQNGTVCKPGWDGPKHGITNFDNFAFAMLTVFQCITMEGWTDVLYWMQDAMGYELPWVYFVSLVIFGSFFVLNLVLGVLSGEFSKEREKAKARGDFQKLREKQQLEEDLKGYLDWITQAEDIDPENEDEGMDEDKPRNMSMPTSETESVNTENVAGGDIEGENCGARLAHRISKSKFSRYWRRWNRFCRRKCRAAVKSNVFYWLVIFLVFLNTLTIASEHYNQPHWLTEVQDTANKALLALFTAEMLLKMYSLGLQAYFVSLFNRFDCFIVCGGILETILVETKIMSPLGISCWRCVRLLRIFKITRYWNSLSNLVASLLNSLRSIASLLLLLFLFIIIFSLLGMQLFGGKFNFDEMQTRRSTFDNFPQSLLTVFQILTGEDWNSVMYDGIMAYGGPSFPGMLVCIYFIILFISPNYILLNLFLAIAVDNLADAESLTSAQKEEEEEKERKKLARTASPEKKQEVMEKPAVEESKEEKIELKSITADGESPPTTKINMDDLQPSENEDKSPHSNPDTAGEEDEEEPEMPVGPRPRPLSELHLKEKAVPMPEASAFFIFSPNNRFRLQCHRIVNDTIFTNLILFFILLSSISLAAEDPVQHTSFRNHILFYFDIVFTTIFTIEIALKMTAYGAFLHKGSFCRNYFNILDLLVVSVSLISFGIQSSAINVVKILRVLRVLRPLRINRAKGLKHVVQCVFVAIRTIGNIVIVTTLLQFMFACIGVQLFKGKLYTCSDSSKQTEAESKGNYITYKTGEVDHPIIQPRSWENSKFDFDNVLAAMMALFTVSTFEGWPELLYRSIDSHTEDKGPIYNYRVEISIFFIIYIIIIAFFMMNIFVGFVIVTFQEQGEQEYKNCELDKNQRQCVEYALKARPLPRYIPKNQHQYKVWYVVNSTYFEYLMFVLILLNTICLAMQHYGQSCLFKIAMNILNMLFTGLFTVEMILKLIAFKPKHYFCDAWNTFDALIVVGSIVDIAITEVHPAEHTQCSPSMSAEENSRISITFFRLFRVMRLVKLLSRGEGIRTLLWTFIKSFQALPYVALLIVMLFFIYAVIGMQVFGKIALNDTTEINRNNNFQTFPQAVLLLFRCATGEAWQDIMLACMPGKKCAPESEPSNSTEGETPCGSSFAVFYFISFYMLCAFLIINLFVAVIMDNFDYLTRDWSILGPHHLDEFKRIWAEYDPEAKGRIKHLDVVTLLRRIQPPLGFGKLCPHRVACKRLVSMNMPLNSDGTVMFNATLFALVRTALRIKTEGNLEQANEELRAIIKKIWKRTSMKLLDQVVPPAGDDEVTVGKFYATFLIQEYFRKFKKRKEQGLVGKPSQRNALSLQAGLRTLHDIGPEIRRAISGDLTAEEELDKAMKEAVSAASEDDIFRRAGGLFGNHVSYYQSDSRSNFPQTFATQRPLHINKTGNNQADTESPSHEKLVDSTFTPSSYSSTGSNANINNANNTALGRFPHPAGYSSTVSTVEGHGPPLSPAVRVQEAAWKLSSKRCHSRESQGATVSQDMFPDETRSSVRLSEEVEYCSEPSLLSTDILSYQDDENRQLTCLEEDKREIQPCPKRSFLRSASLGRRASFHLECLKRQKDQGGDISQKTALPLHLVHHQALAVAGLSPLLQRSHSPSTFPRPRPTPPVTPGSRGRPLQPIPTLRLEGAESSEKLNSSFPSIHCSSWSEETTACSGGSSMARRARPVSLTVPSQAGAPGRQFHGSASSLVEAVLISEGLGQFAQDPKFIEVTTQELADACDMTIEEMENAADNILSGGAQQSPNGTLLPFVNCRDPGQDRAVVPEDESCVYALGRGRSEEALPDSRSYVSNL
T1 sequence (P54290 25-944 partner limits assumed): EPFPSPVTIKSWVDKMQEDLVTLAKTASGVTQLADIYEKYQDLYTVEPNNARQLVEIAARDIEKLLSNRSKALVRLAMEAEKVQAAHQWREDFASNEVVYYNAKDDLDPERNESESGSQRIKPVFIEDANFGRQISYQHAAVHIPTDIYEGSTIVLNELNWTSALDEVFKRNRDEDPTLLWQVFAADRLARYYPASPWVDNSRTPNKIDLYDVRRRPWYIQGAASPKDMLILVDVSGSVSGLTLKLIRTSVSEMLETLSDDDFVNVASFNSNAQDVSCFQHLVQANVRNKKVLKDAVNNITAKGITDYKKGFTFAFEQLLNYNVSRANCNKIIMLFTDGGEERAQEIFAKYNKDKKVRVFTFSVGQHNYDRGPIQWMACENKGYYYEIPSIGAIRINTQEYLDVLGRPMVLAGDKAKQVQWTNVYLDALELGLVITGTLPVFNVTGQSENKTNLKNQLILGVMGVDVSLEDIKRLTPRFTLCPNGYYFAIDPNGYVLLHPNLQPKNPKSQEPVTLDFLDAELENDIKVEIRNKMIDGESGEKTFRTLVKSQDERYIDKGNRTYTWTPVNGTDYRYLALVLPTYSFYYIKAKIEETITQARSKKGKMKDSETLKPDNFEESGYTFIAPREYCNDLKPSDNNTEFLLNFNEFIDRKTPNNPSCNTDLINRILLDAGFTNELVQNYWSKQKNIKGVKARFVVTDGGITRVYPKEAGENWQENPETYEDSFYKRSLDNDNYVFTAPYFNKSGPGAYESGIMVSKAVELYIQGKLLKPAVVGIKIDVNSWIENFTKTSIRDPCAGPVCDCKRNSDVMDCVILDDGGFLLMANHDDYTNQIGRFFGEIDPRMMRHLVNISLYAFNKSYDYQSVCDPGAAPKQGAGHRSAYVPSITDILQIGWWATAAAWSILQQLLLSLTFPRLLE
T1 sequence (P54290 945-1091 partner limits assumed): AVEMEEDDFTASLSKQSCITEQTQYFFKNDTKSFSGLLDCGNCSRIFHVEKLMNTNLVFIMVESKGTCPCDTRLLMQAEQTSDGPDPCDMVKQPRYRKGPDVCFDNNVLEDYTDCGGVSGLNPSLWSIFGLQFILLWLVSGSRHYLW
T1 sequence (P54287 whole entry partner): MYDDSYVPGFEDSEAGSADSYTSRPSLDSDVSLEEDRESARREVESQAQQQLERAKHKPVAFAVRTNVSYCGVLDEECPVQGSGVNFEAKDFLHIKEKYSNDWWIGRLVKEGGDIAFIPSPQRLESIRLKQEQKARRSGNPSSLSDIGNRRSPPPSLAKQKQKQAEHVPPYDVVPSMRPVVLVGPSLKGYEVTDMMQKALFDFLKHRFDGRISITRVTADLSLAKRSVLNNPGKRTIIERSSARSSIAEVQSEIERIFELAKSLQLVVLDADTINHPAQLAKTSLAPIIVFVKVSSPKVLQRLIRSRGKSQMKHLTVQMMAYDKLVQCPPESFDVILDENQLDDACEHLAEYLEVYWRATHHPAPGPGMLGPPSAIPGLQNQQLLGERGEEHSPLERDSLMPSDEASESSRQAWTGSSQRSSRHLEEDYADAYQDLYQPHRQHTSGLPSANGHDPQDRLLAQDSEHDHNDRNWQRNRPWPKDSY
Procedure: The tail main artery was dissected free of its connective tissue, and smooth muscle cells were freshly isolated under the following conditions. […] Cells stored in 0.05 mM Ca^2+ external solution containing 20 mM taurine and 0.5 mg/mL BSA at 4 °C under normal air were used for experiments within two days after isolation.
An Axopatch 200B patch-clamp amplifier (Molecular Devices Corporation, Sunnyvale, CA, USA) was used to generate and apply voltage pulses to the clamped cells and record the corresponding membrane currents. Recording electrodes were pulled from borosilicate glass capillaries (WPI, Berlin, Germany) and fire-polished to obtain a pipette resistance of 2–4 MΩ, when filled with an internal solution. At the beginning of each experiment, the junction potential between the pipette and bath solution was electronically adjusted to zero. […] Electrophysiological responses were tested at room temperature (20–22 °C).
The conventional whole-cell patch-clamp method was employed to voltage-clamp smooth muscle cells. The internal solution consisted of (in mM) 100 CsCl, 10 HEPES, 11 EGTA, 2 MgCl2, 1 CaCl2 (pCa 8.4), 5 Na pyruvate, 5 succinic acid, 5 oxaloacetic acid, 3 Na2ATP, and 5 phosphocreatine; pH was adjusted to 7.4 with CsOH. IBa1.2 was recorded in an external solution containing 30 mM TEA and 5 mM Ba^2+. […] Data were collected once the current amplitude had been stabilized (usually 7–10 min after the whole-cell configuration had been obtained).

rat aorta rings [1] = assay: KCl-induced contraction of rat aorta rings (electromechanical coupling)
Procedure: (§1) The abdominal aorta was gently cleaned of adipose and connective tissues and cut into 3-mm wide rings. These were mounted in organ baths between two parallel, L-shaped, stainless-steel hooks, with one fixed in place and the other connected to an isometric transducer. Rings were allowed to equilibrate for 60 min in modified Krebs-Henseleit solution (composition in mM: 118 NaCl, 4.75 KCl, 1.19 KH2PO4, 1.19 MgSO4, 25 NaHCO3, 11.5 glucose, 2.5 CaCl2, gassed with a 95% O2–5% CO2 gas mixture to create a pH of 7.4) under a passive tension of 1 g. During this equilibration period, the solution was changed every 15 min. Isometric tension was recorded using a digital PowerLab data acquisition system (PowerLab 8/30; ADInstruments). Ring viability was assessed by recording the response to 0.3 µM phenylephrine and 60 mM KCl. Where needed, the endothelium was removed by gently rubbing the lumen of the ring with a forceps tip. This procedure was validated by adding 10 µM acetylcholine at the plateau of phenylephrine-induced contraction; a relaxation greater than 70% or less than 10% denoted the presence or absence of functional endothelium, respectively.
(§2) Aorta rings were pre-contracted pharmaco-mechanically using 0.3 µM phenylephrine and electromechanically using 25–30 mM or 60 mM KCl. Once the contraction reached a plateau, the compound was added cumulatively into the organ bath. […] The response was calculated as the percentage of phenylephrine- or KCl-induced contraction (taken as 100%).

KCa1.1 channel = biological target: T2, KCa1.1 channel (Rattus norvegicus, UniProt Q62976); assay: Whole-cell patch-clamp, K+ current through KCa1.1 channels (IKCa1.1) in tail artery myocytes; format: cell-based; conditions: 3, 10 and 30 µM cumulative; membrane potential 30–70 mV, Vh −40 mV
T2 construct: IKCa1.1 measured in tail artery myocytes; endogenous in cells; host or cells: freshly isolated rat tail main artery smooth muscle cells
Procedure: The tail main artery was dissected free of its connective tissue, and smooth muscle cells were freshly isolated under the following conditions. […] This solution was gently bubbled and stirred with a 95% O2–5% CO2 gas mixture, as previously described. Cells stored in 0.05 mM Ca^2+ external solution containing 20 mM taurine and 0.5 mg/mL BSA at 4 °C under normal air were used for experiments within two days after isolation.
An Axopatch 200B patch-clamp amplifier (Molecular Devices Corporation, Sunnyvale, CA, USA) was used to generate and apply voltage pulses to the clamped cells and record the corresponding membrane currents. Recording electrodes were pulled from borosilicate glass capillaries (WPI, Berlin, Germany) and fire-polished to obtain a pipette resistance of 2–4 MΩ, when filled with an internal solution. At the beginning of each experiment, the junction potential between the pipette and bath solution was electronically adjusted to zero. […]
K^+ current through the KCa1.1 channel (IKCa1.1) (registration period 500 ms) was measured over a range of test potentials, from −20 mV to 70 mV from a Vh of −40 mV. […] The current–voltage relationships were calculated based on the values recorded during each test pulse (leakage corrected offline). […]

rat aorta rings [2] = assay: Phenylephrine-induced contraction of rat aorta rings (pharmaco-mechanical coupling); conditions: Rattus norvegicus, 0.3 µM phenylephrine
Procedure: as §1, §2

Structure (SMILES): CC1(C)CCC[C@]2(C)[C@@H](CC(=O)Nc3ccccc3-n3cccc3)[C@](C)(O)CC[C@@H]12 [Compound 7]
- Emax (CaV1.2 channel; read-out: Emax (percent maximal inhibition), IBa1.2): 90.5 ± 5.8%
- IC50 (CaV1.2 channel; read-out: IC50, IBa1.2 inhibition): 13.2 ± 5.4 µM
- Emax (rat aorta rings [1]; endothelium-denuded rat aorta rings pre-contracted by 25 mM KCl, read-out: Emax (percent maximal inhibition), KCl 25 mM-induced contraction): 94.3 ± 4.5%
- IC50 (rat aorta rings [1]; endothelium-denuded rat aorta rings pre-contracted by 25 mM KCl, read-out: IC50, KCl 25 mM-induced contraction): 0.2 ± 0.1 µM
- Emax (rat aorta rings [1]; endothelium-denuded rat aorta rings pre-contracted by 60 mM KCl, read-out: Emax (percent maximal inhibition), KCl 60 mM-induced contraction): 89.7 ± 1.9%
- IC50 (rat aorta rings [1]; endothelium-denuded rat aorta rings pre-contracted by 60 mM KCl, read-out: IC50, KCl 60 mM-induced contraction): 9.3 ± 2 µM
- Effect on IKCa1.1 (KCa1.1 channel): significant concentration-dependent stimulation of the current
- Emax (rat aorta rings [2]; endothelium-denuded rat aorta rings, read-out: Emax (percent maximal inhibition), phenylephrine-induced contraction, −Endothelium): ≤ 60%
- Emax (rat aorta rings [2]; endothelium-intact rat aorta rings, read-out: Emax (percent maximal inhibition), phenylephrine-induced contraction, +Endothelium): 8.6 ± 9.3%
